Experimental findings from US10328164B2, “Radiopharmaceutical products” (GE HEALTHCARE LIMITED, priority 2006, dated 2019) are described below.

For this data set the following is noted: tetrofosmin kit with ascorbic acid radioprotectant, without air addition step; post preparation. An excerpt:
The tetrofosmin kit may optionally comprise a radioprotectant, as defined above. […] Med. Comm., 21, 845-849 (2000)] and the Myoview™ Package Instructions.

SMILES strings stand for the structures.

Turning to `CCOCC[PH+](CCOCC)CC[PH+](CCOCC)CCOCC.CCOCC[PH+](CCOCC)CC[PH+](CCOCC)CCOCC.[O]=[99Tc]=[O]` [^99mTc-tetrofosmin, ^99mTc(O)2(tetrofosmin)2^+], the post-reconstitution stability result is given as “up to 12 hours”.
